Reference: the supplement of paper PMC11281043

Tests used:
Conditions in all cases: exposure: 6-8 hpf to 5 dpf, scored at 6 dpf
Danio rerio embryo/larva [1] = assay: BMC edema; higher = less potent
Protocol: (§1)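 Zebrafish embryos (with chorion) were exposed from 6-8 hpf to each PFAS (8-point half-log series, top concentration up to 100 uM, 0.4% DMSO, sealed plates, 26 C; n = 6 embryos per concentration), rinsed at 5 dpf and scored at 6 dpf by two blinded observers for mortality, hatching and malformations. Endpoint scores are the % of living larvae affected (dead larvae excluded; […]). Curves were fitted with tcpl (cutoff 16%), and the BMC is the concentration at a benchmark response of 21.6%.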

Danio rerio embryo/larva [2] = assay: max % larvae unhatched across tested concentrations; max tested concentration (log10 uM): 2; higher = more toxic
Danio rerio embryo/larva [3] = assay: BMC any abnormality; max tested concentration (log10 uM): 2; higher = less potent
Protocol: as §1

Danio rerio embryo/larva [4] = assay: max % larvae with any abnormality across tested concentrations; max tested concentration (log10 uM): 2; higher = more toxic; extreme values may be limits of the assay
Danio rerio embryo/larva [5] = assay: max % larvae with craniofacial defects across tested concentrations; higher = more toxic; extreme values may be limits of the assay
Danio rerio embryo/larva [6] = assay: max % larvae generally abnormal across tested concentrations; higher = more toxic; extreme values may be limits of the assay
Danio rerio embryo/larva [7] = assay: max % larvae with blood pooling across tested concentrations; higher = more toxic; extreme values may be limits of the assay
Danio rerio embryo/larva [8] = assay: max % larvae with edema across tested concentrations; higher = more toxic; extreme values may be limits of the assay
Danio rerio embryo/larva [9] = assay: max % larvae with uninflated swim bladder across tested concentrations; higher = more toxic; extreme values may be limits of the assay
Danio rerio embryo/larva [10] = assay: max % larvae with abnormal position across tested concentrations; higher = more toxic; extreme values may be limits of the assay
Danio rerio embryo/larva [11] = assay: max % larvae with pigmentation defects across tested concentrations; higher = more toxic
Danio rerio embryo/larva [12] = assay: max % larvae with tail defects across tested concentrations; higher = more toxic; extreme values may be limits of the assay
Danio rerio embryo/larva [13] = assay: max % larvae with spinal defects across tested concentrations; higher = more toxic; extreme values may be limits of the assay
Danio rerio embryo/larva [14] = assay: BMC general abnormality; higher = less potent
Protocol: as §1

Danio rerio embryo/larva [15] = assay: max % larvae dead across tested concentrations; max tested concentration (log10 uM): 2; higher = more toxic; extreme values may be limits of the assay
Danio rerio embryo/larva [16] = assay: BMC swim bladder non-inflation; higher = less potent
Protocol: as §1

[17] = max tested concentration (log10 uM): 2
[18] = max tested concentration (log10 uM): 0

SMILES | max % larvae unhatched across tested concentrations (Danio rerio embryo/larva [2]) [%] | BMC any abnormality (Danio rerio embryo/larva [3]) [µM] | max % larvae (Danio rerio embryo/larva [4]) [%] | max % larvae (Danio rerio embryo/larva [5]) [%] | max % larvae generally abnormal across tested concentrations (Danio rerio embryo/larva [6]) [%] | max % larvae (Danio rerio embryo/larva [7]) [%] | max % larvae (Danio rerio embryo/larva [8]) [%] | max % larvae (Danio rerio embryo/larva [9]) [%] | max % larvae (Danio rerio embryo/larva [10]) [%] | max % larvae (Danio rerio embryo/larva [11]) [%] | max % larvae (Danio rerio embryo/larva [12]) [%] | max % larvae (Danio rerio embryo/larva [13]) [%] | BMC general abnormality (Danio rerio embryo/larva [14]) [µM] | max % larvae dead across tested concentrations (Danio rerio embryo/larva [15]) [%] | also measured
O=P(O)(O)CCC(F)(F)C(F)(F)C(F)(F)C(F)(F)C(F)(F)C(F)(F)F [2-(Perfluorohexyl)ethylphosphonic acid] | 0 | 21.9 | 95.8 |  |  |  |  |  |  |  |  |  |  |  | BMC edema (Danio rerio embryo/larva [1]; [17]): 22.5 µM
O=C(O)CCC(F)(F)C(F)(F)C(F)(F)C(F)(F)C(F)(F)F [2H,2H,3H,3H-Perfluorooctanoic acid] (max tested concentration (log10 uM): 1.47712) |  |  |  | 100 | 100 | 100 | 100 | 100 | 25 | 0 | 25 | 12.5 | 9.38 |  | 
O=C(O)CCC(F)(F)C(F)(F)C(F)(F)C(F)(F)C(F)(F)C(F)(F)F [3-(Perfluorohexyl)propanoic acid] (max tested concentration (log10 uM): 1) |  |  |  | 16.7 | 25 | 0 | 25 | 16.7 | 4.17 | 0 | 12.5 | 0 | 9.01 |  | 
O=C(O)CCC(F)(F)C(F)(F)C(F)(F)F [3:3 Fluorotelomer carboxylic acid] | 0 | 87.8 | 25 |  |  |  |  |  |  |  |  |  |  | 0 | 
OCC(F)(F)C(F)(F)C(F)(F)C(F)(F)C(F)(F)C(F)(F)F [6:1 Fluorotelomer alcohol] | 0 | 73.3 | 75 |  |  |  |  |  |  |  |  |  |  |  | BMC edema (Danio rerio embryo/larva [1]; [17]): 94.1 µM
OCCCC(F)(F)C(F)(F)C(F)(F)C(F)(F)C(F)(F)C(F)(F)C(F)(F)F [7:3 Fluorotelomer alcohol] | 0 | 38.3 | 45.8 |  |  |  |  |  |  |  |  |  |  |  | BMC swim bladder non-inflation (Danio rerio embryo/larva [16]; [17]): 99 µM
OCCCC(F)(F)C(F)(F)C(F)(F)C(F)(F)C(F)(F)C(F)(F)C(F)(F)F [7:3 Fluorotelomer alcohol] (max tested concentration (log10 uM): 2) |  |  |  | 11.1 | 22.2 | 16.7 | 19.4 | 22.2 | 0 | 0 | 0 | 0 | 44.8 |  | 
O=C(O)C(F)(F)C(F)(F)C(F)(F)C(F)(F)C(F)(F)C(F)(F)C(F)(F)C(F)(F)Cl [9-Chloro-perfluorononanoic acid] (max tested concentration (log10 uM): 2) |  |  |  | 100 | 100 | 41.7 | 100 | 100 | 25 | 0 | 75 | 50 | 9.23 |  | 
O=C(O)C(F)(F)C(F)(F)C(F)(F)C(F)(F)C(F)(F)C(F)(F)C(F)(F)C(F)(F)C(F)(F)C(F)F [11-H-Perfluoroundecanoic acid] (max tested concentration (log10 uM): 1.47712) |  |  |  | 100 | 100 | 100 | 100 | 100 | 50 | 0 | 100 | 0 | 12.6 |  | 
FC(F)C(F)(F)COCC1CO1 (stereo not drawn) [((2,2,3,3-Tetrafluoropropoxy)methyl)oxirane] | 0 | 26.5 | 91.7 |  |  |  |  |  |  |  |  |  |  | 0 | BMC edema (Danio rerio embryo/larva [1]; [17]): 32.6 µM; BMC swim bladder non-inflation (Danio rerio embryo/larva [16]; [17]): 27.7 µM
O=P(O)(O)CCC(F)(F)C(F)(F)C(F)(F)C(F)(F)C(F)(F)C(F)(F)C(F)(F)C(F)(F)F [((Perfluorooctyl)ethyl)phosphonic acid] (max tested concentration (log10 uM): 2) |  |  |  | 20 | 60 | 0 | 50 | 100 | 50 | 0 | 5 | 0 | 1.31 |  | 
CNS(=O)(=O)C(F)(F)C(F)(F)C(F)(F)C(F)(F)C(F)(F)C(F)(F)C(F)(F)C(F)(F)F [N-Methylperfluorooctanesulfonamide] | 0 | 0.702 | 95.8 |  |  |  |  |  |  |  |  |  |  |  | BMC edema (Danio rerio embryo/larva [1]; [17]): 20.1 µM; BMC swim bladder non-inflation (Danio rerio embryo/larva [16]; [17]): 0.439 µM
O=C(Cl)C(F)(F)C(F)(F)C(F)(F)C(F)(F)C(F)(F)C(F)(F)C(F)(F)C(F)(F)F [Perfluorononanoyl chloride] | 0 | 25 | 100 |  |  |  |  |  |  |  |  |  |  | 100 | 
NS(=O)(=O)C(F)(F)C(F)(F)C(F)(F)C(F)(F)C(F)(F)C(F)(F)C(F)(F)C(F)(F)F [Perfluorooctanesulfonamide] | 0 | 0.261 | 100 |  |  |  |  |  |  |  |  |  |  |  | BMC edema (Danio rerio embryo/larva [1]; [18]): 0.563 µM; BMC swim bladder non-inflation (Danio rerio embryo/larva [16]; [18]): 0.313 µM
O=S(=O)(O)C(F)(F)C(F)(F)C(F)(F)C(F)(F)C(F)(F)C(F)(F)F [Potassium perfluorohexanesulfonate] | 0 | 31.3 | 90.9 |  |  |  |  |  |  |  |  |  |  |  | 
O=C(O)C(F)(F)C(F)(F)C(F)(F)C(F)(F)C(F)(F)C(F)(F)C(F)(F)F [Potassium perfluorooctanoate] | 0 |  | 16.7 |  |  |  |  |  |  |  |  |  |  | 16.7 | 
O=C(O)C(F)(F)C(F)(F)C(F)(F)C(F)(F)C(F)(F)C(F)(F)C(F)(F)F [Sodium perfluorooctanoate] | 0 |  | 0 |  |  |  |  |  |  |  |  |  |  | 0 | 
FC(F)(F)COC(OCC(F)(F)F)OCC(F)(F)F [tris(Trifluoroethoxy)methane] | 0 |  | 0 |  |  |  |  |  |  |  |  |  |  | 0 | 
